The results in this text go back to paper PMC11997999, “Uncovering α-Selectivity for Liver X Receptor Agonists for Lipotoxic Cancer Therapies” (Journal of Medicinal Chemistry, 2025).

The test system of one test is Hep3B cells. Briefly: Cell viability analysis in Hep3B cells (CellTiter-Glo). The test is classed as cell-based, human. The conditions noted are these: 5 d, 2 μM. Here is the method:
To determine the therapeutic efficacy of compound 40 in HCC cells, we next tested its effect on Hep3B cell viability in combination with the DFG-out Raf inhibitor sorafenib (2 μM).
For organoid treatment studies, digestion of organoids was performed using TrypLE Express (Gibco) supplemented with 100 μg/mL DNaseI and 10.5 μM Y-27632 dihydrochloride (Invitrogen) at 37 °C, and afterward, single-cells were plated in white 96 well plates (Sarstedt) in a mixture of 10% Matrigel (Growth Factor Reduced (GFR) Matrigel, Corning) in culture medium. Cell viability was determined after 5 days of treatment using the CellTiter-Glo 3D Cell Viability Assay Kit (Promega). Cell viability of Hep3B, AML12, and BNL CL.2 cells was determined after 5 days of treatment in white 96 well plates (Sarstedt) using the CellTiter-Glo 2.0 Cell Viability Assay Kit (Promega). AML12 and BNL CL.2 cells were also obtained from the American Type Culture Collection. The luminescence signal was measured using an […] M PLEX plate reader (Tecan) and the Tecan i-control software (v3.9.1). Sodium oleate (Selleckchem) was dissolved in methanol and added to cells at a final concentration of 200 μM.

The test system of test [1] is Akt1^Myr; Myc^OE HCC organoids. The experiment in a line: Cell viability analysis in HCC organoids (CellTiter-Glo 3D). The test is classed as cell-based, murine. The conditions noted are these: 5d, with 4 μM sorafenib. The source says: Finally, we analyzed the efficacy of compound 40 in preclinical treatment studies in three-dimensional liver cancer organoid cultures. HCC organoids driven by myristoylated Akt1 and overexpressed Myc (Akt1^Myr; Myc^OE) were isolated from murine liver tumors and subjected to monotherapies of sorafenib, compound 40, or a combination thereof (Figure 7C). The therapeutic outcome was side-by-side compared with combinatorial therapies comprising the established agonists T0901317 (1) and GW3965 (2). […] Isolation of murine HCC organoid cultures was performed from liver tumors derived from C57BL/6 mice using established protocols.[26] The animal experiments were approved by committees of the regional authority of the state of Baden-Wuerttemberg (Regierungspraesidium Tuebingen, authorization number M15/18G) as appropriate. After digestion, the organoids were embedded in 100% Growth Factor Reduced (GFR) MatrigelTM (Corning) and cultured at 37 °C and 5% CO2 in HCC organoid medium supplemented with nicotinamide (10 mM), N-acetylcystein (1.25 mM), human HGF (50 ng/mL), human FGF-10 (100 ng/mL), human R-Spondin (0.5 μg/mL), forskolin (10 μM), A83- 01 (0.5 μM), murine Noggin (50 ng/mL), gastrin I (10 nM), human BMP-7 (25 ng/mL), human Wnt3a (100 ng/mL), B27 supplement (1×) and N2 supplement (1×). The cultures were split by mechanical dissociation every 3 to 4 days. […] Cell viability was determined after 5 days of treatment using the CellTiter-Glo 3D Cell Viability Assay Kit (Promega). Cell viability of Hep3B, AML12, and BNL CL.2 cells was determined after 5 days of treatment in white 96 well plates (Sarstedt) using the CellTiter-Glo 2.0 Cell Viability Assay Kit (Promega). […] The luminescence signal was measured using an […] M PLEX plate reader (Tecan) and the Tecan i-control software (v3.9.1). […]

The next test addresses T1, LXRβ LBD (GST) (Homo sapiens, UniProt P55055).
T1 construct: 5 nM LXRα LBD (GST); 10 nM LXRβ LBD (GST); purchased ThermoFisher Scientific PV4658
T1 sequence (P55055 222-460 limits assumed): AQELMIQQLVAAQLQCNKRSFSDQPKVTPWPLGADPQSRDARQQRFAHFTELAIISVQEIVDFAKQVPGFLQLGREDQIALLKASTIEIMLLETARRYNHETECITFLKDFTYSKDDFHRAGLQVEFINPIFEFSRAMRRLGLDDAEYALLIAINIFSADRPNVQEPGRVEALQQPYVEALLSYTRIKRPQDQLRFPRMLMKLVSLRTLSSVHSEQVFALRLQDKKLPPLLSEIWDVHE
The experiment in a line: Time-resolved LXR FRET assay (LanthaScreen TR-FRET LXRβ assay kit). The following applies: for TR-FRET activity on LXRβ, in words: statement made for both isoforms. The test is classed as biochemical. The protocol: (§1) The biochemical TR-FRET assays were performed using the LanthaScreen TR-FRET LXRα Coactivator Assay Kit, goat (ThermoFisher Scientific, PV4655), and the LanthaScreen TR-FRET LXRβ assay kit, goat (ThermoFisher Scientific, PV4658), according to the manufacturer’s instructions using the following concentrations: 5 nM LXRα LBD (GST); 10 nM LXRβ LBD (GST); 500 nM fluorescein-TRAP220/DRIP-2; 200 nM fluorescein-D22; 10 nM Tb anti-GST antibody. The TR-FRET signals were measured after 6 h using a TECAN SPARK multimode microplate reader with the following settings: first excitation wavelength: 360 nm (bandwidth 35 nm), first emission wavelength: 485 nm (bandwidth 20 nm); second excitation wavelength: 360 nm (bandwidth 35 nm), second emission wavelength: 535 nm (bandwidth 25 nm); integration time: 200 μs; lag time: 100 μs; settle time: 0 ms.

The target of a further test is T2, LXRα (Homo sapiens, UniProt Q13133).
T2 construct: To measure the activity of the remaining isoform under treatment; endogenous in cells; host or cells: Hep3B (NR1H2 knockout, LXRE-GFP reporter)
T2 sequence (Q13133 1-447): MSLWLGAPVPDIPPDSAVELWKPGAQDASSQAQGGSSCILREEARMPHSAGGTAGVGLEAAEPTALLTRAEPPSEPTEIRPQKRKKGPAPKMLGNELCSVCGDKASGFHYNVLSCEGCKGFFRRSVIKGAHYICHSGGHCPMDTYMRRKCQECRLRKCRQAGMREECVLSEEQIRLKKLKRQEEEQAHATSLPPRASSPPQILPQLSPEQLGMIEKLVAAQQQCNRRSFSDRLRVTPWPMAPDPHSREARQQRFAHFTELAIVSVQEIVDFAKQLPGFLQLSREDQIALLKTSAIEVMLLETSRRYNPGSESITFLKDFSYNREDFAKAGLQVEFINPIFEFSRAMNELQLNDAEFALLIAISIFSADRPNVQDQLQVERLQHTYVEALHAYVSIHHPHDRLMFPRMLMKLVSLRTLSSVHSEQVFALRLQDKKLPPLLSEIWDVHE
Briefly: LXRα-specific LXRE-GFP reporter assay in Hep3B cells (NR1H2 knockout). The test is classed as cell-based. The following applies: 48h of treatment, GFP by FACS.

The next test deals with T3, LXRα LBD (GST) (Homo sapiens, UniProt Q13133).
T3 construct: 5 nM LXRα LBD (GST); 10 nM LXRβ LBD (GST); purchased ThermoFisher Scientific PV4655
T3 sequence (Q13133 209-447 limits assumed): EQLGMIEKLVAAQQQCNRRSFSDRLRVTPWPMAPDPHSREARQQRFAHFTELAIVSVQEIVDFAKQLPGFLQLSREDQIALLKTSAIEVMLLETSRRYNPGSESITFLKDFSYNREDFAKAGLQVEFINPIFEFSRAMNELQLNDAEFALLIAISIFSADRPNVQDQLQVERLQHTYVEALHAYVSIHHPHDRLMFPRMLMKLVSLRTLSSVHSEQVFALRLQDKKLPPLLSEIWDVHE
Briefly: Time-resolved LXR FRET assay (LanthaScreen TR-FRET LXRα Coactivator Assay Kit). The test is classed as biochemical. The conditions noted are these: for TR-FRET activity on LXRα, in words: statement made for both isoforms. The protocol: as §1

For another test, the target named is T4, LXRβ (Homo sapiens, UniProt P55055).
T4 construct: To measure the activity of the remaining isoform under treatment; endogenous in cells; host or cells: Hep3B (NR1H3 knockout, LXRE-GFP reporter)
T4 sequence (P55055 1-460): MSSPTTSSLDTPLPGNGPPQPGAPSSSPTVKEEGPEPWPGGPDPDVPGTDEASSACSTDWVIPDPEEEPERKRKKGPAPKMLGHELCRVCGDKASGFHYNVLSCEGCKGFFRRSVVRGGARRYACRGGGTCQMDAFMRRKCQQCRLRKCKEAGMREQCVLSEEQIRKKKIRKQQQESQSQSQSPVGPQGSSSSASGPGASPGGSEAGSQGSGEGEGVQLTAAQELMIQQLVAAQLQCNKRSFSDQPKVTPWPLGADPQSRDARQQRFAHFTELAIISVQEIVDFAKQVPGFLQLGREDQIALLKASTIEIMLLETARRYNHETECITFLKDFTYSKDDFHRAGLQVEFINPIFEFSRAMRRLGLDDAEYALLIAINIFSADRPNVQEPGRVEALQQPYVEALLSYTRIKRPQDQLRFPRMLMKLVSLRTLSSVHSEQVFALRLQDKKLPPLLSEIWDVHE
Briefly: LXRβ-specific LXRE-GFP reporter assay in Hep3B cells (NR1H3 knockout). The following applies: 48h of treatment, GFP by FACS. In kind it is cell-based.

The mark [2] stands for this setting: 10 nM LXRβ LBD (GST), read after 6 h, R^2 of fit given, read-out: TR-FRET activity (EC50) LXRβ.
Where [3] appears, read: 5 nM LXRα LBD (GST), read after 6 h, R^2 of fit given, read-out: TR-FRET activity (EC50) LXRα.

Structures are written as SMILES. Where two headings read alike, the source gives them in different places.

With `CNC(=O)c1cc(Oc2ccc(NC(=O)Nc3ccc(Cl)c(C(F)(F)F)c3)cc2)ccn1` [sorafenib, reference compound], in the test on Hep3B cells, the “therapeutic effect on cell viability, sorafenib monotherapy” value was “only a low therapeutic effect”.
With `O=S(=O)(c1ccccc1)N(CC(F)(F)F)c1ccc(C(O)(C(F)(F)F)C(F)(F)F)cc1` [T0901317 (1)], the “therapeutic efficacy (cell viability) in combination with sorafenib” value in test [1] is “dose-dependent response”.
With `CC(C)(C)N1C(=O)C(Nc2ccc(N3CCCCC3)cc2)=C(c2ccccc2)C1=O` [Compound 51, 1-(tert-Butyl)-3-phenyl-4-((4-(piperidin-1-yl)phenyl)amino)-1H-pyrrole-2,5-dione], the EC50 was determined as 156 nM at LXRβ LBD (GST) (setting [2]), 19 nM at LXRα, 36 nM at LXRα LBD (GST) (setting [3]) and 113 nM at LXRβ.
For `COc1ccc(NC2=C(c3ccccc3)C(=O)N(Cc3ccccc3)C2=O)cc1` [GSK3987 (3), 1-Benzyl-3-((4-methoxyphenyl)amino)-4-phenyl-1H-pyrrole-2,5-dione, reference compound], in that order: 180 nM, 99 nM, 154 nM and 248 nM.
Take `O=C1C(Nc2ccc(N3CCSCC3)cc2)=C(c2ccccc2)C(=O)N1Cc1ccccc1` [Compound 42, 1-Benzyl-3-phenyl-4-((4-thiomorpholinophenyl)amino)-1H-pyrrole-2,5-dione]: the EC50 at LXRβ LBD (GST) (setting [2]) was found to be 123 nM; at LXRα LBD (GST) (setting [3]), 50 nM.
With `CC(C)(C)OC(=O)NC1CCN(c2ccc(NC3=C(c4ccccc4)C(=O)N(Cc4ccccc4)C3=O)cc2)CC1` [Compound 45, tert-Butyl-(1-(4-((1-benzyl-2,5-dioxo-4-phenyl-2,5-dihydro-1H-pyrrol-3-yl)amino)phenyl)piperidin-4-yl)carbamate], the “TR-FRET activity on LXRβ, in words” value on LXRβ LBD (GST) was “abolished all activity”. The EC50 is over 3000 nM on LXRβ LBD (GST) (supplement list of compounds, (LXRβ), unit inferred, read-out: FRET activity b) and over 3000 nM at LXRα LBD (GST) (supplement list of compounds, LXRα, unit inferred, read-out: FRET activity a). For the same compound, the “TR-FRET activity on LXRα, in words” value on LXRα LBD (GST) is given as “abolished all activity”.
`O=C1C(Nc2ccc(N3CCNCC3)cc2)=C(c2ccccc2)C(=O)N1Cc1ccccc1` [Compound 43, 1-Benzyl-3-phenyl-4-((4-(piperazin-1-yl)phenyl)amino)-1H-pyrrole-2,5-dione]: the EC50 at LXRβ LBD (GST) (setting [2]) came out at 283 nM; on LXRα LBD (GST) (setting [3]), 1250 nM.
In the case of `NC1CCN(c2ccc(NC3=C(c4ccccc4)C(=O)N(Cc4ccccc4)C3=O)cc2)CC1` [Compound 46, 3-((4-(4-Aminopiperidin-1-yl)phenyl)amino)-1-benzyl-4-phenyl-1H-pyrrole-2,5-dione], the EC50 worked out at 120 nM on LXRβ LBD (GST) (setting [2]), 1480 nM on LXRα, 630 nM on LXRα LBD (GST) (setting [3]) and 1250 nM at LXRβ.
In the case of `COc1ccc(NC2=C(c3ccccc3)C(=O)N(Cc3ccc(C(F)(F)F)cc3)C2=O)cc1` [Compound 18, 3-((4-Methoxyphenyl)amino)-4-phenyl-1-(4-(trifluoromethyl)benzyl)-1H-pyrrole-2,5-dione], the EC50 on LXRβ LBD (GST) (setting [2]) and at LXRα LBD (GST) (setting [3]) was over 3000 nM throughout. The “TR-FRET activity on LXRβ, in words” value at LXRβ LBD (GST) is reported as “completely lost potency”. Moreover, the “TR-FRET activity on LXRα, in words” value on LXRα LBD (GST) was “completely lost potency”.
Regarding `O=C1C(Nc2ccc(N3CCOCC3)cc2)=C(c2ccccc2)C(=O)N1Cc1ccccc1` [Compound 41, 1-Benzyl-3-((4-morpholinophenyl)amino)-4-phenyl-1H-pyrrole-2,5-dione], the EC50 was 106 nM on LXRβ LBD (GST) (setting [2]) and 35 nM on LXRα LBD (GST) (setting [3]).
The matching figures for `O=C1C(Nc2ccc(Cl)cc2)=C(c2ccccc2)C(=O)N1Cc1ccccc1` [Compound 30, 1-Benzyl-3-((4-chlorophenyl)amino)-4-phenyl-1H-pyrrole-2,5-dione]: 1180 nM and 1150 nM.
The matching figures for `O=C1C(Nc2ccc3c(c2)OCO3)=C(c2ccccc2)C(=O)N1Cc1ccccc1` [Compound 38, 3-(Benzo[d][1,3]dioxol-5-ylamino)-1-benzyl-4-phenyl-1H-pyrrole-2,5-dione]: 45 nM and 42 nM.
